Source: article PMC8474119, “Discovery and SAR Evolution of Pyrazole Azabicyclo[3.2.1]octane Sulfonamides as a Novel Class of Non-Covalent N-Acylethanolamine-Hydrolyzing Acid Amidase (NAAA) Inhibitors for Oral Administration” (Journal of Medicinal Chemistry, 2021)
“And” between values parts separate entries of the source, which are not always exact repeats. Equal values may be shown once.

Target: T1, h-NAAA (Homo sapiens, UniProt Q02083)
T1 construct: made in house; host or cells: HEK-293 cells stably overexpressing human NAAA; enzyme-enriched (lysosomal) lysate
T1 sequence (Q02083 29-125 limits assumed): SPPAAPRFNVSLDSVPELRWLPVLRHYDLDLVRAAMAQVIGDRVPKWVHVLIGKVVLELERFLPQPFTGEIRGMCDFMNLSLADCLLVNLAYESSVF
T1 sequence (Q02083 126-359 limits assumed): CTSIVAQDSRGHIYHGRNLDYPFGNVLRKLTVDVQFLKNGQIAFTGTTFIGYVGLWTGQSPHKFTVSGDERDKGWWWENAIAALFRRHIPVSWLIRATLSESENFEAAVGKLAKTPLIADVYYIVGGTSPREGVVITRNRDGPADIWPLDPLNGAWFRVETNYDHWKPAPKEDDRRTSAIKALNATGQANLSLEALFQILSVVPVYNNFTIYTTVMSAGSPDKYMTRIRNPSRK
Assay: Fluorogenic human-NAAA assay (h-NAAA, fluo.)
Assay type: biochemical
Conditions: for IC50 / pIC50: h-NAAA (fluo.); for IC50: mean ± SD (n ≥ 3), n.a.: not active @50 μM (<10% inhibition); for LipE: LipE = pIC50 – c Log P (h-NAAA); for pIC50: Table S1
Experimental: Human recombinant proteins were obtained from HEK-293 stable overexpressing human NAAA, AC, and FAAH-1 cell lines, respectively. Cells were grown in Dulbecco’s modified Eagle medium (DMEM) containing 10% FBS, 1% glutamine, 1 mM sodium pyruvate, and 500 μg/mL geneticin (G418). To obtain a high-density cell proliferation, h-NAAA-HEK-293 cells were grown in BelloCell-500 bottle, a compact bioreactor. On the contrary, h-AC and h-FAAH-1-HEK-293 cells were grown in 150 mm dishes and scraped off with cold PBS 1× pH 7.4 at 80% confluence. Cell pellets were collected and stored at −80 °C until protein preparation.
HEK-293 cells stably transfected with the human NAAA or human AC coding sequences were used as the enzyme source. Cells were suspended in 20 mM Tris-HCl (pH 7.4) with 0.32 M sucrose, sonicated, and centrifuged at 800g for 30 min at 4 °C. Supernatants were then centrifuged at 12,000g for 30 min at 4 °C. Pellets were resuspended in PBS buffer (pH 7.4) and subjected to three freeze-thaw cycles at −80 °C. The suspension was finally centrifuged at 105,000g for 1 h at 4 °C, supernatants were collected, protein concentration was measured, and samples were aliquoted and stored at −80 °C until use.
The assay was run in 96-well microplates (Black OptiPlate-96 F; PerkinElmer, Massachusetts, USA), in a total reaction volume of 200 μL. h-NAAA protein preparation (4 μg) was preincubated for 30 min with various concentrations of test compounds or vehicle control (DMSO 5%) in 100 mM citrate/phosphate buffer (pH 4.5) containing 3.0 mM DTT, 0.1% NP40, 0.05% BSA, and 150 mM NaCl. The background (no activity) samples were prepared using assay buffer without h-NAAA and DMSO (5%). N-(4-methyl-2-oxo-chromen-7-yl)-hexadecanamide (PAMCA)[60] was used as a substrate (2 μM) and the reaction was carried out for 50 min at 37 °C. Fluorescence was measured with EnVision 2014 Multilabel Reader (PerkinElmer, Massachusetts, USA) using an excitation wavelength of 355 nm and an emission of 460 nm. IC50 values were calculated by non-linear regression analysis of log[concentration]/response curves generated with mean replicate values using a four-parameter Hill equation curve fitting with GraphPad Prism 5 (GraphPad Software Inc., CA, USA).

SMILES	IC50	LipE	pIC50
Cc1n[nH]c(C)c1S(=O)(=O)N1[C@@H]2CC[C@H]1C[C@@H](Oc1ccccn1)C2 [Compound 30, (1R,3r,5S)-8-((3,5-Dimethyl-1H-pyrazol-4-yl)sulfonyl)-3-(pyridin-2-yloxy)-8-azabicyclo[3.2.1]octane]	160 nM and 162 nM		
Cc1n[nH]c(C)c1S(=O)(=O)N1[C@@H]2CC[C@H]1C[C@@H](Oc1ccccc1)C2 [Compound 31, (1R,3r,5S)-8-((3,5-Dimethyl-1H-pyrazol-4-yl)sulfonyl)-3-phenoxy-8-azabicyclo[3.2.1]octane]	93 ± 20 nM		
Cc1n[nH]c(C)c1S(=O)(=O)N1[C@@H]2CC[C@H]1C[C@H](Oc1ccccc1)C2 [Compound 32, (1R,3s,5S)-8-((3,5-Dimethyl-1H-pyrazol-4-yl)sulfonyl)-3-phenoxy-8-azabicyclo[3.2.1]octane]	655 ± 45 nM		
Cc1ccc(O[C@H]2C[C@H]3CC[C@@H](C2)N3S(=O)(=O)c2c(C)n[nH]c2C)cc1 [Compound 33, (1R,3r,5S)-8-((3,5-Dimethyl-1H-pyrazol-4-yl)sulfonyl)-3-(p-tolyloxy)-8-azabicyclo[3.2.1]octane]	36 ± 4 nM		
Cc1ccc(O[C@@H]2C[C@H]3CC[C@@H](C2)N3S(=O)(=O)c2c(C)n[nH]c2C)cc1 [Compound 34, (1R,3s,5S)-8-((3,5-Dimethyl-1H-pyrazol-4-yl)sulfonyl)-3-(p-tolyloxy)-8-azabicyclo[3.2.1]octane]	8710 ± 340 nM		
Cc1cccc(OC2CC3CCC(C2)N3S(=O)(=O)c2c(C)n[nH]c2C)c1 [Compound 35, (1R,3r,5S)-8-((3,5-Dimethyl-1H-pyrazol-4-yl)sulfonyl)-3-(m-tolyloxy)-8-azabicyclo[3.2.1]octane]	614 ± 140 nM		
Cc1ccccc1O[C@H]1C[C@H]2CC[C@@H](C1)N2S(=O)(=O)c1c(C)n[nH]c1C [Compound 36, (1R,3r,5S)-8-((3,5-Dimethyl-1H-pyrazol-4-yl)sulfonyl)-3-(o-tolyloxy)-8-azabicyclo[3.2.1]octane]	291 ± 10 nM		
CCc1ccc(O[C@H]2C[C@H]3CC[C@@H](C2)N3S(=O)(=O)c2c(C)n[nH]c2C)cc1 [Compound 37, (1R,3r,5S)-8-((3,5-Dimethyl-1H-pyrazol-4-yl)sulfonyl)-3-(4-ethylphenoxy)-8-azabicyclo[3.2.1]octane]	51 ± 5 nM		
Cc1n[nH]c(C)c1S(=O)(=O)N1[C@@H]2CC[C@H]1C[C@@H](Oc1ccc(C(C)C)cc1)C2 [Compound 38, (1R,3r,5S)-8-((3,5-Dimethyl-1H-pyrazol-4-yl)sulfonyl)-3-(4-isopropylphenoxy)-8-azabicyclo[3.2.1]octane]	744 ± 90 nM		
CCCCCCc1ccc(O[C@H]2C[C@H]3CC[C@@H](C2)N3S(=O)(=O)c2c(C)n[nH]c2C)cc1 [Compound 41, (1R,3r,5S)-8-((3,5-Dimethyl-1H-pyrazol-4-yl)sulfonyl)-3-(4-hexylphenoxy)-8-azabicyclo[3.2.1]octane]	19 ± 1 nM		
Cc1n[nH]c(C)c1S(=O)(=O)N1[C@@H]2CC[C@H]1C[C@@H](Oc1ccc(CCC(C)C)cc1)C2 [Compound 42, (1R,3r,5S)-8-((3,5-Dimethyl-1H-pyrazol-4-yl)sulfonyl)-3-(4-isopentylphenoxy)-8-azabicyclo[3.2.1]octane]	114 ± 10 nM		
Cc1n[nH]c(C)c1S(=O)(=O)N1[C@@H]2CC[C@H]1C[C@@H](Oc1ccc(C(F)(F)F)cc1)C2 [Compound 43, (1R,3r,5S)-8-((3,5-Dimethyl-1H-pyrazol-4-yl)sulfonyl)-3-(4-(trifluoromethyl)phenoxy)-8-azabicyclo[3.2.1]octane]	212 ± 20 nM		
COc1ccc(O[C@H]2C[C@H]3CC[C@@H](C2)N3S(=O)(=O)c2c(C)n[nH]c2C)cc1 [Compound 44, (1R,3r,5S)-8-((3,5-Dimethyl-1H-pyrazol-4-yl)sulfonyl)-3-(4-methoxyphenoxy)-8-azabicyclo[3.2.1]octane]	175 ± 15 nM		
Cc1n[nH]c(C)c1S(=O)(=O)N1[C@@H]2CC[C@H]1C[C@@H](Oc1ccc(C#N)cc1)C2 [Compound 45]	757 ± 80 nM		
Cc1n[nH]c(C)c1S(=O)(=O)N1[C@@H]2CC[C@H]1C[C@@H](Oc1ccc(F)cc1)C2 [Compound 46, (1R,3r,5S)-8-((3,5-Dimethyl-1H-pyrazol-4-yl)sulfonyl)-3-(4-fluorophenoxy)-8-azabicyclo[3.2.1]octane]	143 ± 7 nM		
CCCOc1ccc(O[C@H]2C[C@H]3CC[C@@H](C2)N3S(=O)(=O)c2c(C)n[nH]c2C)cc1 [Compound 47, (1R,3r,5S)-8-((3,5-Dimethyl-1H-pyrazol-4-yl)sulfonyl)-3-(4-propoxyphenoxy)-8-azabicyclo[3.2.1]octane]	450 ± 70 nM	3.55	6.35
CCOCc1ccc(O[C@H]2C[C@H]3CC[C@@H](C2)N3S(=O)(=O)c2c(C)n[nH]c2C)cc1 [Compound 48, (1R,3r,5S)-8-((3,5-Dimethyl-1H-pyrazol-4-yl)sulfonyl)-3-(4-(ethoxymethyl)phenoxy)-8-azabicyclo[3.2.1]octane]	16 ± 2 nM	5.70	7.79
